Measurements from US6900194B1, “Use of substituted 4-biarylbutyric and 5-biarylpentanoic acid derivatives as matrix metalloprotease inhibitors for the treatment of respiratory diseases” (Bayer Aktiengesellschaft, priority 1998, dated 2005).

Columns and labels:
Type in all cases: biochemical
[1] = target: MMP-13 (Human Collagenase 3) (Homo sapiens, UniProt P45452); assay: P218 quenched fluorescence assay, MMP-13 (human)
Source text: (§1) P218 Quenched Fluorescence Assay for MMP Inhibition:
(§2) This assay is adapted from the one described by Knight et al., FEBS Letters, 296, 263-266 (1992) for MMP-3 and a related substrate. The rate of hydrolysis of the synthetic substrate H-MCA-Pro-Lys-Pro-Leu-Ala-Leu-DPA-Ala-Arg-NH2 (P218) by the respective MMPs is monitored fluorometrically, using an excitation wavelength of 340 nm and an emission wavelength of 395 nm, in the presence or absence of the test compounds. The substrate is made up initially in 100% DMSO to a concentration of 1×10^−2 M, then diluted in assay buffer to a final concentration of 20 μM. […] The total assay volume in a 96 well microtitre plate is 150 μl, Cleavage of the substrate between the Leu-Ala residues allows the fluorescence of the MCA group to be detected on a fluorometer (Cytofluor II) following excitation at 340 nm and emission at 395 nm. Change in fluorescence is continually monitored for a 40 min period.
(§3) The Ki's are calculated using the method described by Williams and Morrison, Methods in Enzymology, 63, 437-467 (1979) to measure Ki apparent for tight binding inhibitors, and is summarised as follows: [I]0/(1−vi/v0)=Ki apparent ×vi/v0+[E]0 [I]0 and [E]0 are inhibitor and enzyme concentrations, and vi/v0 are reaction velocities with/without inhibitor. […]
(§4) IC50's are determined at each enzyme concentration using Xlfit software. […]

[2] = target: T1, Rat MMP-13 (Rattus norvegicus, UniProt P23097); assay: P218 quenched fluorescence assay, MMP-13 (rat); conditions: read-out: IC50 vs. MMP-13 (value marked *)
T1 construct: Rat pro-MMP-13 was obtained according to the protocol of Roswit, Arch; Biochem. Biophys
Source text: as §1, §2, §3, §4

[3] = target: T2, MMP-3 (Stromelysin) (Homo sapiens, UniProt P08254); assay: P218 quenched fluorescence assay, MMP-3
T2 construct: Truncated Pro-stromelysin-257 is expressed in a soluble form in E. coli as described by Marcy et al; made in house; host or cells: E. coli
Source text: as §1, §2, §3, §4

[4] = target: T3, MMP-7 (Matrilysin) (Homo sapiens, UniProt P09237); assay: P218 quenched fluorescence assay, MMP-7
T3 construct: Catalytic domain expressed in E. coli using the pET 14 vector, provided by Dr Steve Shapiro; host or cells: E. coli
T3 sequence (P09237 95-267): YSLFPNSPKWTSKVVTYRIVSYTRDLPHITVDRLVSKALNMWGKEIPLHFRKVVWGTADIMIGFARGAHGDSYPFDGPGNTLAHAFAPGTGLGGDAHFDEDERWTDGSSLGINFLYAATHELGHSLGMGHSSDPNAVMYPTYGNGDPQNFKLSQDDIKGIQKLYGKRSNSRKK
Source text: as §1, §2, §3, §4

[5] = target: T4, MMP-12 (Macrophage Elastase) (Homo sapiens, UniProt P39900); assay: P218 quenched fluorescence assay, MMP-12; conditions: human; read-out: Potency Ki vs. MMP-12
T4 construct: made in house; host or cells: E. coli BL21 (DE3)
Source text: as §1
This assay is adapted from the one described by Knight et al., FEBS Letters, 296, 263-266 (1992) for MMP-3 and a related substrate. The rate of hydrolysis of the synthetic substrate H-MCA-Pro-Lys-Pro-Leu-Ala-Leu-DPA-Ala-Arg-NH2 (P218) by the respective MMPs is monitored fluorometrically, using an excitation wavelength of 340 nm and an emission wavelength of 395 nm, in the presence or absence of the test compounds. The substrate is made up initially in 100% DMSO to a concentration of 1×10^−2 M, then diluted in assay buffer to a final concentration of 20 μM. Test compounds (10 mM in DMSO) are diluted in assay buffer at an initial concentration of 0.3-1000 nM. These are diluted to a final concentration in the assay from 0.03 nM to 100 nM. The reaction is initiated by the addition of substrate at a final concentration of 20 μM. The total assay volume in a 96 well microtitre plate is 150 μl, Cleavage of the substrate between the Leu-Ala residues allows the fluorescence of the MCA group to be detected on a fluorometer (Cytofluor II) following excitation at 340 nm and emission at 395 nm. Change in fluorescence is continually monitored for a 40 min period.
The Ki's are calculated using the method described by Williams and Morrison, Methods in Enzymology, 63, 437-467 (1979) to measure Ki apparent for tight binding inhibitors, and is summarised as follows: [I]0/(1−vi/v0)=Ki apparent ×vi/v0+[E]0 [I]0 and [E]0 are inhibitor and enzyme concentrations, and vi/v0 are reaction velocities with/without inhibitor. [I]0 is equal to IC50 when vi is half v0, so that: IC50=0.5×[E]0+Ki apparent
IC50's are determined at each enzyme concentration using Xlfit software. Ki apparent is then determined graphically from the plot of IC50 versus MMP concentration, using the intercepts to estimate Ki apparent. Thus, intercept values at IC50=0 and [E]0=0 are equal to −2×Ki apparent and Ki apparent, respectively. IC50 values are calculated using % inhibition values at each enzyme concentration, ensuring data is taken from the linear part of the reaction rate curves. The Ki can then be calculated from the equation: Ki=Ki apparent/[…] where S=substrate concentration and Km=dissociation constant.
The assay conditions are modified as follows for each of the MMPs used:
MMP-12 (Macrophage Elastase)
[…] is isolated according to the following procedure: Human GenePool cDNA libraries from human lung, spleen, and brain were obtained from Invitrogen (Groningen, The Netherlands). HPLC-purified oligonucleotides were purchased from BioTez (Berlin, Germany), E. coli strain DH5α from Life Technologies (Heidelberg, Germany), strain BL21(DE3) from Novagen (Heidelberg, Germany). Pfu DNA-Polymerase and pBlueScriptII-KS(+) were from Stratagene (Heidelberg, Germany). DNA plasmid and DANN gel isolation kits were purchased from Qiagen (Hilden, Germany). All restriction enzymes and DNA modifying enzymes were ordered from New England Biolabs (Schwalbach, Germany). HiTrapQ (5 ml) was from Pharmacia Biotech (Freiburg, Germany). Vydac C4-RP HPLC columns (214TP54: 300 Å, 5 μm, 4.6×250 mm; 214TP1022: 300 Å, 10 μm, 22×250 mm) were from Promochem (Wesel, Germany). Fluorogenic substrate P218 was purchased from Polypeptide Laboratories (Wolfenbüttel, Germany). Ultrapure urea was purchased from Schwarz-Mann (Cleveland, Ohio). Ready-to-use NuPAGE 10% Bis-Tris Polyacrylamide SDS-PAGE gels and NuPAGE 20×MOPS running buffer were obtained from Novex (Frankfurt/Main, Germany) 10% AMPA and all other chemicals were from Sigma (Deisenhofen, Germany). […]

T2 sequence (P08254 100-274): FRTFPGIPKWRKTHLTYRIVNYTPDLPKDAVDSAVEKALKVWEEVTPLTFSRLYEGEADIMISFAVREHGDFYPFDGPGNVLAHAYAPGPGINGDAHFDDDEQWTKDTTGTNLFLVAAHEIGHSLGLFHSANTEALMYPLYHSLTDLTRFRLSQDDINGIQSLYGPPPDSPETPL
T4 sequence (P39900 106-470): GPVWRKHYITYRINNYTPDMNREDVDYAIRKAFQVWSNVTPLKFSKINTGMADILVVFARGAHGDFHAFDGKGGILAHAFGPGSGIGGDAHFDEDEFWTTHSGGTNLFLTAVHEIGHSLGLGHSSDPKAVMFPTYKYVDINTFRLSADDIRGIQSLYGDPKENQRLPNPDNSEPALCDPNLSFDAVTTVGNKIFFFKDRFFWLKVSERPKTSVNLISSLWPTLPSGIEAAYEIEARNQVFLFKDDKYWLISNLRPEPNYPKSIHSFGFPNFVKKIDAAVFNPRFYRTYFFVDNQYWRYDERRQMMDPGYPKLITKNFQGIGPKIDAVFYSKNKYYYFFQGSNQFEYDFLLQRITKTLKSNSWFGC

Row | SMILES | Ki ([1]; read-out: Potency Ki vs. MMP-13) | IC50 [2] | Ki ([3]; read-out: Potency Ki vs. MMP-3) | Ki ([4]; read-out: Potency Ki vs. MMP-7) | Ki [5] | IC50 ([1]; read-out: IC50 vs. MMP-13 (value marked *)) | IC50 ([3]; read-out: IC50 vs. MMP-3 (value marked *)) | inhibition at 0.03 µM ([4]; at 30 nM, read-out: % inh. of MMP-7)
1 | O=C(CC(CCN1C(=O)c2ccccc2C1=O)C(=O)O)c1ccc(-c2ccc(Cl)cc2)cc1 (single isomer, unassigned; (+)) [Example 4, (+)-4-(4′-Chloro[1,1′-biphenyl]4-yl)-2-[2-(1,3-dioxo-1,3-dihydro-2H-isoindol-2-yl)ethyl]-4-oxobutanoic acid] | 5.6 nM | 296 nM | 3.7 nM | > 3000 nM | 0.3 nM | – | – | –
2 | CCOc1ccc(-c2ccc(C(=O)CC(CCN3C(=O)c4ccccc4C3=O)C(=O)O)cc2)cc1 (single isomer, unassigned; (+)) [Example 2, (+)-2-[2-(1,3-Dioxo-1,3-dihydro-2H-isoindol-2-yl)ethyl]-4-(4′-ethoxy[1,1′-biphenyl]-4-yl)-4-oxobutanoic acid] | – | 69 nM | – | – | 0.03 nM | 70 nM | 60 nM | 38%
